Several values for one entry are separate records, joined by “and”; a condition that tells them apart may be missing. Equal values may be shown once.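 Five compound concentrations were applied to cells in 96-well plates for 48 hours; endpoints were derived by simple linear interpolation of the resulting dose-response curve. Here, GI50 denotes the concentration required for 50% inhibition of growth. At the TGI there is no net growth.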
What was measured:
Experiment in all cases: NCI-60 cell line screen, 48 h
HOP-92 NSCLC = test system: HOP-92 NSCLC
EKVX NSCLC = test system: EKVX NSCLC
HL-60(TB) leukemia = test system: HL-60(TB) leukemia
HOP-62 NSCLC = test system: HOP-62 NSCLC
RPMI-8226 leukemia = test system: RPMI-8226 leukemia
K-562 leukemia = test system: K-562 leukemia
HS 578T breast = test system: HS 578T breast
T-47D breast = test system: T-47D breast
MDA-MB-231 breast = test system: MDA-MB-231 breast
SNB-19 CNS = test system: SNB-19 CNS

Row | Structure (SMILES) | TGI (HOP-92 NSCLC) [µM] | TGI (EKVX NSCLC) [µM] | TGI (HL-60(TB) leukemia) [µM] | TGI (HOP-62 NSCLC) | TGI (RPMI-8226 leukemia) [µM] | TGI (K-562 leukemia) | GI50 (HS 578T breast) [µM] | TGI (HS 578T breast) [µM] | GI50 (T-47D breast) | TGI (T-47D breast) [µM] | GI50 (EKVX NSCLC) | GI50 (HL-60(TB) leukemia) [µM] | GI50 (MDA-MB-231 breast) [µM] | TGI (MDA-MB-231 breast) [µM] | GI50 (SNB-19 CNS) [µM] | TGI (SNB-19 CNS) | GI50 (HOP-62 NSCLC) [µM] | GI50 (RPMI-8226 leukemia) [µM] | GI50 (K-562 leukemia) | GI50 (HOP-92 NSCLC) [µM]
1 | NCCn1ccc(NC(c2ccccc2)(c2ccccc2)c2ccccc2)nc1=O | 27.4 | 59.9 | 38.5 | 73.8 µM | 46.3 | 44.9 µM |  |  |  |  |  |  |  |  |  |  |  |  |  | 
2 | Clc1nc(Cl)c2ncn(C/C=C/Cn3cnc4c(Cl)nc(Cl)nc43)c2n1 |  | 36.9 | > 100 | 32.9 µM | 25.8 | 55.8 µM | 14.6 | 35.1 | 11.2 µM | 32 | 20.5 µM | 17.3 | 21.2 | 38 | 19.1 | 38 µM | 15.6 | 10.4 | 15.5 µM | 
3 | COc1ccc2nc3ccccc3c(NCCCCCN(CCCl)CCCl)c2c1 | 0.719 | 4.1 | 0.0881 | 0.525 µM | 0.206 | 0.502 µM |  |  |  |  |  |  |  |  |  | 0.914 µM |  |  |  | 
4 | COc1cc[c]([Sb]([Br])([CH]=C(C)C)([CH]=C(C)C)[CH]=C(C)C)cc1 |  | 39.6 | 13.7 | > 100 µM | 5.47 | > 100 µM |  |  |  |  | 2.28 µM | 1.73 |  |  | 5.4 | 78.9 µM | 29.5 | 0.868 | 4.54 µM | 
5 | CC1(C(=O)NCCN(CCNC(=O)C2(C)CC3(C)CC(C)(C2)C(=O)NC3=O)CCNC(=O)C2(C)CC3(C)CC(C)(C2)C(=O)NC3=O)CC2(C)CC(C)(C1)C(=O)NC2=O (stereo not given) |  | > 100 | > 100 | > 100 µM | > 100 | > 100 µM |  |  |  |  |  |  |  |  |  | > 100 µM |  |  |  | 
6 | O=C(N[C@@H]1C=CCC[C@@H]1c1ccccc1)OCc1ccccc1 | 32.1 | 72.5 | 34.6 | 34.6 µM | 57.2 | > 100 µM |  |  |  |  |  |  |  |  |  | 99.6 µM |  |  |  | 
7 | CCOC(=O)/C(=C/c1ccccc1)C(=O)c1ccccc1 | 21.8 |  |  | 4.37 µM | 5.98 |  | 3.03 | 18.8 | 6.17 µM | 32.5 |  |  | 3.06 | 12 | 5.84 | 20.7 µM | 2.01 | 2.25 |  | 3.92
8 | NC(=S)N/N=C1\C(=O)N(CCc2ccccc2)C(=O)C1C(=O)NCCc1ccccc1 (stereo not given) | > 100 | > 100 |  | > 100 µM | > 100 | > 100 µM |  |  |  |  |  |  |  |  |  | > 100 µM |  |  |  | 
9 | CN1C(=O)N(C)C2C1NN=c1s/c(=C\c3c[nH]c4ccccc34)c(=O)n12 (stereo not given) | > 100 | > 100 | 0.858 | 52.6 µM | 1.55 | > 100 µM | 0.0342 | > 90.9 |  |  | 0.0577 µM | 0.0305 | 0.0671 | > 100 | 0.0443 | > 100 µM | 0.046 | 0.0346 | 0.0312 µM | 0.36
10 | COC1=C(C)C(=O)C2=C(C1=O)C(CO)N1C(C#N)C3CC4C(C1C2N1CCOC41)N3C (stereo not given) |  |  |  | 0.973 µM and 0.902 µM and 3.34 µM |  | 0.547 µM and 0.0682 µM and 0.123 µM |  |  | 0.00033 µM and < 0.0144 µM |  | 0.00438 µM and < 0.0144 µM | 0.000183 |  | 1.37 |  | 8.15 µM and 5.65 µM and 13.6 µM | 0.00557 | 0.0177 | 0.00627 µM and < 0.01 µM | 0.0014
11 | O=C(c1ccco1)c1ccccc1C(=O)c1ccco1 | > 100 | > 100 | > 100 | > 100 µM |  | > 100 µM |  |  |  |  |  |  |  |  |  | > 100 µM |  |  |  | 
12 | Cc1ccc(/C=N/NS(=O)(=O)c2ccccc2)cc1 | > 100 | > 100 | > 100 | > 100 µM | > 100 | > 100 µM |  |  |  |  |  |  |  |  |  |  |  |  |  | 
13 | COc1cc([N+](=O)[O-])c(S(=O)(=O)O)cc1N |  | > 100 | > 100 | > 100 µM | > 100 | > 100 µM |  | > 100 |  | > 100 |  |  |  | > 100 |  | > 100 µM |  |  |  | 
14 | COc1ccc(N2CCN(CN3CCN(c4ccc(OC)cc4)C3)C2)cc1 | > 100 | > 100 |  | > 100 µM | > 100 | 52.7 µM | > 100 | > 100 | > 100 µM | > 100 | > 100 µM |  | > 100 | > 100 | > 100 | > 100 µM | 81.5 | 32.6 | 27.8 µM | 57.9
15 | COc1cc(-c2nc(-c3nnc(-c4ccc(F)c(Cl)c4)o3)c3ccccn23)cc(OC)c1OC | 6.26 | > 100 |  | 4.57 µM | 5.65 | > 100 µM | 2.51 | 29.2 |  |  | 4.19 µM |  | 2.15 | 14.7 | 1.93 | 5.36 µM | 2.19 | 1.79 | 4.34 µM | 1.55
16 | Cc1cccc(Cl)c1NC(N)=S | > 100 | > 100 | > 100 | > 100 µM | 58.8 | > 100 µM |  |  |  |  |  |  |  |  |  | > 100 µM |  |  |  | 
17 | NC1=NN(c2ccccc2)C(=O)C1/C(=N\NC(=O)c1cc2ccccc2cc1O)C(=O)Nc1nc([N+](=O)[O-])cs1 (stereo not given) | 87.5 | > 100 | 37.9 | > 100 µM | 87.8 | 42.2 µM |  |  |  |  |  |  |  |  |  | > 100 µM |  |  |  | 
18 | CCCCNC(=O)OCC(COc1ccccc1OC)OC(=O)NCCCC (stereo not given) |  | > 100 | > 100 | > 100 µM | > 100 | > 100 µM |  |  |  |  |  |  |  |  |  | > 100 µM |  |  |  | 
19 | C=CCC(N[C@@H](CO)c1ccccc1)c1ccccn1 (stereo not given in full) |  | > 100 | > 100 | > 100 µM | > 100 | > 100 µM | > 100 | > 100 | > 100 µM | > 100 | 75 µM | 24 | > 100 | > 100 |  |  | > 100 | 32.7 | 34 µM | 
20 | CC(C)(C)CC(C)(C)N(CSc1ccc(Cl)cc1)CSc1ccc(Cl)cc1 |  |  | 3.96 | 10.8 µM | 5.11 | 26 µM | 1.72 | > 100 |  |  |  | 1.75 | 0.486 | 2.2 | 2.14 | 19.9 µM | 0.57 | 2.17 | 3.49 µM | 
